Data from ChEMBL document CHEMBL3526091, “Pharmacokinetics, metabolism, and excretion of the glycogen synthase kinase-3 inhibitor LY2090314 in rats, dogs, and humans: a case study in rapid clearance by extensive metabolism with low circulating metabolite exposure” (Drug Metab Dispos, 2013).

Columns and labels:
[1] = Drug recovery in bile duct-cannulated Sprague-Dawley rat bile at 5 mg/kg, iv administered for 30 mins during 0 to 12 hrs time interval by radio analysis; format: ADME, organism-based; parameters: dose 5 mg/kg, dosed compound name [14C]LY2090314, route intravenous; details: in vivo
[2] = AUC (0 to infinity) in Sprague-Dawley rat at 5 mg/kg, iv administered for 30 mins; format: ADME, organism-based; parameters: time infinity, dose 5 mg/kg, dosed compound name [14C]LY2090314, route intravenous; details: plasma
[3] = Drug uptake in beagle […] blood at 5 mg/kg, iv administered for 30 mins; format: ADME, organism-based, Canis lupus familiaris; parameters: dose 5 mg/kg, dosed compound name [14C]LY2090314, route intravenous; details: in vivo, 0.5 h
Plasma [4] = assay: Plasma concentration in Sprague-Dawley rat at 5 mg/kg, iv administered for 30 mins; format: ADME, organism-based; parameters: dose 5 mg/kg, dosed compound name [14C]LY2090314, route intravenous; details: in vivo, 0.5 h
[5] = Drug recovery in bile duct-cannulated Sprague-Dawley rat bile at 5 mg/kg, iv administered for 30 mins during 0 to 168 hrs time interval by radio analysis; format: ADME, organism-based; parameters: dose 5 mg/kg, dosed compound name [14C]LY2090314, route intravenous; details: in vivo
Plasma [6] = assay: Drug metabolism in Mrp2 knockout Sprague-Dawley rat plasma at 5 mg/kg, iv administered for 30 mins; format: ADME, organism-based; parameters: dose 5 mg/kg, dosed compound name LY2090314, route intravenous; details: in vivo, 0.5 h
[7] = Drug metabolism in Mrp2 knockout Sprague-Dawley rat bile at 5 mg/kg, iv administered for 30 mins; format: ADME, organism-based; parameters: dose 5 mg/kg, dosed compound name LY2090314, route intravenous; details: in vivo, 0.5 h
[8] = Drug recovery in Sprague-Dawley rat urine at 5 mg/kg, iv administered for 30 mins during 0 to 24 hrs time interval by radio analysis; format: ADME, organism-based; parameters: dose 5 mg/kg, dosed compound name [14C]LY2090314, route intravenous; details: in vivo
[9] = Cmax in cancer patient at 60 mg for 60 mins treated 1/1 cycle/day; format: ADME, organism-based; parameters: dose 60 mg, dosed compound name LY2090314; details: human, in vivo
[10] = Tmax in cancer patient at 120 mg for 60 mins treated 1/1 cycle/day; format: ADME, organism-based; parameters: dosed compound name LY2090314; details: human, in vivo
[11] = AUC (0 to infinity) in cancer patient at 20 mg for 60 mins treated 2/1 cycle/day; format: ADME, organism-based; parameters: dose 20 mg, time infinity, dosed compound name LY2090314; details: human, plasma
[12] = Cmax in beagle dog at 5 mg/kg, iv administered for 30 mins; format: ADME, organism-based, Canis lupus familiaris; parameters: dose 5 mg/kg, dosed compound name [14C]LY2090314, route intravenous; details: in vivo
[13] = Volume of distribution at steady state in cancer patient at 40 mg for 60 mins treated 1/1 cycle/day; format: ADME, organism-based; parameters: dosed compound name LY2090314; details: human, in vivo, read-out: Vdss
[14] = Drug recovery in bile duct-cannulated Sprague-Dawley rat assessed as radioactivity in bile during 0 to 24 hrs at 5 mg/kg, iv administered for 30 mins relative to dosed radioactivity; format: ADME, organism-based; parameters: dose 5 mg/kg, dosed compound name [14C]LY2090314, route intravenous; details: in vivo
[15] = Drug recovery in beagle dog urine at 5 mg/kg, iv administered for 30 mins during 0 to 168 hrs time interval by radio analysis; format: ADME, organism-based, Canis lupus familiaris; parameters: dose 5 mg/kg, dosed compound name [14C]LY2090314, route intravenous; details: in vivo
[16] = Volume of distribution at steady state in cancer patient at 20 mg for 60 mins treated 1/1 cycle/day; format: ADME, organism-based; parameters: dosed compound name LY2090314; details: human, in vivo, read-out: Vdss
[17] = Drug recovery in bile duct-cannulated Sprague-Dawley rat assessed as radioactivity in bile during 0 to 12 hrs at 5 mg/kg, iv administered for 30 mins relative to dosed radioactivity; format: ADME, organism-based; parameters: dose 5 mg/kg, dosed compound name [14C]LY2090314, route intravenous; details: in vivo
[18] = AUC (0 to infinity) in cancer patient at 60 mg for 60 mins treated 1/8 cycle/day; format: ADME, organism-based; parameters: dose 60 mg, time infinity, dosed compound name LY2090314; details: human, plasma
[19] = Volume of distribution at steady state in cancer patient at 80 mg for 60 mins treated 1/8 cycle/day; format: ADME, organism-based; parameters: dosed compound name LY2090314; details: human, in vivo, read-out: Vdss
Rattus norvegicus [20] = assay: Total drug recovery in bile duct-cannulated Sprague-Dawley rat at 5 mg/kg, iv administered for 30 mins during 0 to 168 hrs time interval by radio analysis; format: ADME, organism-based; parameters: dose 5 mg/kg, dosed compound name [14C]LY2090314, route intravenous; details: in vivo
[21] = Clearance in cancer patient at 10 mg for 60 mins treated 2/1 cycle/day; format: ADME, organism-based; parameters: dosed compound name LY2090314; details: human, in vivo
Rattus norvegicus [22] = assay: Elimination half life in Sprague-Dawley rat assessed as total radioactivity at 5 mg/kg, iv administered for 30 mins; format: ADME, organism-based; parameters: dose 5 mg/kg, dosed compound name [14C]LY2090314, route intravenous; details: in vivo, 0.5 h
[23] = Tmax in cancer patient at 20 mg for 60 mins treated 1/1 cycle/day; format: ADME, organism-based; parameters: dosed compound name LY2090314; details: human, in vivo
[24] = Elimination half life in beagle dog at 5 mg/kg, iv administered for 30 mins; format: ADME, organism-based, Canis lupus familiaris; parameters: dose 5 mg/kg, dosed compound name [14C]LY2090314, route intravenous; details: in vivo, read-out: beta t1/2 (converted)
[25] = Volume of distribution at steady state in cancer patient at 60 mg for 60 mins treated 1/1 cycle/day; format: ADME, organism-based; parameters: dosed compound name LY2090314; details: human, in vivo, read-out: Vdss
[26] = Clearance in cancer patient at 80 mg for 60 mins treated 1/8 cycle/day; format: ADME, organism-based; parameters: dosed compound name LY2090314; details: human, in vivo

O=C1NC(=O)C(c2cnc3ccccn23)=C1c1cn2c3c(cc(F)cc13)CN(C(=O)N1CCCCC1)CC2 [LY-2090314] gave a Radiolabel recovery [1] of 85.2%, an AUC(0-inf) [2] of 1260 ng·h/mL and a Compound recovery [3] of 25.5%. For the same molecule, the Compound recovery (Plasma [4]) was 70.4%, the Radiolabel recovery [5] was 85.8% and the Drug metabolism (Plasma [6]) was “metabolite_not_detected”. The Drug metabolism [7] was “metabolite_detected”, the Radiolabel recovery [8] was 0.73% and the Cmax [9] was 881 ng/mL. The Tmax [10] was 58.8 min, the AUC(0-inf) [11] was 404 ng·h/mL and the Cmax [12] was 5090 ng/mL. It also gave a Vd [13] of 79.3 L, a Radiolabel recovery [14] of 91.8% and a Radiolabel recovery [15] of 20.6%. It also gave a Vd [16] of 77.5 L, a Radiolabel recovery [17] of 85.2% and an AUC(0-inf) [18] of 1570 ng·h/mL. It also gave a Vd [19] of 66 L, a Radiolabel recovery (Rattus norvegicus [20]) of 94.9% and a clearance [21] of 870 mL/min. The “beta t1/2” value (Rattus norvegicus [22]) was 435 min, the Tmax [23] was 58.8 min and the half-life [24] was 39.7 min. For the same molecule, the Vd [25] was 76.8 L and the clearance [26] was 765 mL/min.
